Measurements as given in patent publication US7550469B2, “Heterocyclic amide derivatives and their use as dopamine D3 receptor ligands” (Aventis Pharmaceuticals Inc., priority 2001, dated 2009).
Read-outs that look alike come from different tables or passages of the source.

Target: T1, cloned human dopamine D3 receptors (Homo sapiens, UniProt P35462)
T1 construct: expressed in transfected cells; membrane homogenate
Test: [N-Methyl-3H]Spiroperidol binding to cloned human dopamine D3 receptors (Protocol 1)
How it was run: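 Radioligand displacement with [N-methyl-3H]spiroperidol used a physiological-salt Tris buffer (0.05 M, pH 7.7; NaCl 120 mM, KCl 5 mM, CaCl2 2 mM, MgCl2 1 mM) and membranes of a high-expressing stable CHO clone carrying human D3. Total ligand concentration came from measured added CPM; 0.1% ascorbic acid was optional for oxidizable compounds.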

[1] = the 21st table, read-out: D3 Ki
[2] = the 16th table, read-out: D3 Ki

T1 sequence (P35462 whole entry): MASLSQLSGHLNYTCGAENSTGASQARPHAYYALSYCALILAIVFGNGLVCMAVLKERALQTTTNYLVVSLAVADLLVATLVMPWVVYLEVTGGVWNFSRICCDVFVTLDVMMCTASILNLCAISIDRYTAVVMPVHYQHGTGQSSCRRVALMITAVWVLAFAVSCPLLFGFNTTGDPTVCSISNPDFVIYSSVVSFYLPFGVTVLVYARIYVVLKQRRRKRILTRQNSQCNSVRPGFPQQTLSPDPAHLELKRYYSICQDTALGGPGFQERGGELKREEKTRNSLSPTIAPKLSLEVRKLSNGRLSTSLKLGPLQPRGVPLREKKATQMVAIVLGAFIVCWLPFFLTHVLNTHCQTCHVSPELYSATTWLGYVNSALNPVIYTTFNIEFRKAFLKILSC

| Ki (Table 2, read-out: D3K1) [nM] | Ki [2] [nM] | Ki (read-out: D3K1) [nM] | SMILES | other results |
| --- | --- | --- | --- | --- |
|  |  |  | C[C@@H]1CN(c2csc3cc(F)ccc23)C[C@H](C)N1CCCCNC(=O)c1cc2ccccc2s1 [compound 827054] | Ki [1]: 43.5 nM |
| 32.9 | 32.9 |  | O=C(NCCCCN1CCCN(c2csc3cc(F)ccc23)CC1)c1cc2cccc(F)c2o1 [compound 827120] |  |
| 21.6 | 21.6 |  | COc1cccc2cc(C(=O)NCCCCN3CCCN(c4csc5cc(F)ccc45)CC3)oc12 [compound 827121] |  |
| 6.06 | 6.06 |  | COc1ccc2cc(C(=O)NCCCCN3CCCN(c4csc5cc(F)ccc45)CC3)oc2c1 [compound 827122] |  |
| 107 | 107 |  | CCN(CC)c1ccc2cc(C(=O)NCCCCN3CCCN(c4csc5cc(F)ccc45)CC3)oc2c1 [compound 827123] |  |
| 16.6 | 16.6 |  | O=C(NCCCCN1CCCN(c2csc3cc(F)ccc23)CC1)c1cc2c(Cl)cc(Cl)cc2o1 [compound 827124] |  |
| 28.3 | 28.3 |  | COc1cc(Br)cc2cc(C(=O)NCCCCN3CCCN(c4csc5cc(F)ccc45)CC3)oc12 [compound 827125] |  |
| 74.3 | 74.3 |  | O=C(NCCCCN1CCCN(c2csc3cc(F)ccc23)CC1)c1cc2cc(OC(F)(F)F)ccc2o1 [compound 827127] |  |
| 19.1 | 19.1 |  | COc1cccc2oc(C(=O)NCCCCN3CCCN(c4csc5cc(F)ccc45)CC3)cc12 [compound 827128] |  |
| 7.75 | 7.75 |  | Cc1ccc2oc(C(=O)NCCCCN3CCCN(c4csc5cc(F)ccc45)CC3)cc2c1 [compound 827129] |  |
| 15.4 | 15.4 |  | Cc1ccc2cc(C(=O)NCCCCN3CCCN(c4csc5cc(F)ccc45)CC3)oc2c1 [compound 827130] |  |
| 4.18 | 4.18 |  | COc1cc(C)c2cc(C(=O)NCCCCN3CCCN(c4csc5cc(F)ccc45)CC3)oc2c1OC [compound 827131] |  |
| 129 | 129 |  | CC(C)(C)c1cc(C(C)(C)C)c2oc(C(=O)NCCCCN3CCCN(c4csc5cc(F)ccc45)CC3)cc2c1 [compound 827132] |  |
| 12.6 | 12.6 |  | CCOc1cccc2cc(C(=O)NCCCCN3CCCN(c4csc5cc(F)ccc45)CC3)oc12 [compound 827133] |  |
| 62 | 62 |  | O=C(NCCCN1CCCN(c2csc3cc(F)ccc23)CC1)c1cccs1 [compound 827134] |  |
| 141 | 141 |  | O=C(NCCCN1CCCN(c2csc3cc(F)ccc23)CC1)c1cccc(Cl)c1 [compound 827135] |  |
| 268 | 268 |  | COc1cc(OC)cc(C(=O)NCCCN2CCCN(c3csc4cc(F)ccc34)CC2)c1 [compound 827136] |  |
| 166 | 166 |  | O=C(NCCCN1CCCN(c2csc3cc(F)ccc23)CC1)c1cccc2ccccc12 [compound 827138] |  |
| 131 | 131 |  | O=C(NCCCN1CCCN(c2csc3cc(F)ccc23)CC1)c1ccc2ccccc2c1 [compound 827139] |  |
| 99 | 99 |  | COc1ccccc1C(=O)NCCCN1CCCN(c2csc3cc(F)ccc23)CC1 [compound 827141] |  |
| 101 | 101 |  | O=C(NCCCN1CCCN(c2csc3cc(F)ccc23)CC1)c1cccc(F)c1 [compound 827142] |  |
| 123 | 123 |  | O=C(NCCCN1CCCN(c2csc3cc(F)ccc23)CC1)c1cc2ccccc2s1 [compound 827143] |  |
| 5.85 | 5.85 |  | O=C(NCCCCCN1CCCN(c2csc3cc(F)ccc23)CC1)c1cc(-c2ccco2)nc2ccccc12 [compound 827159] |  |
|  |  |  | CC1=C(C(=O)NCCCCN2[C@H](C)CN(c3csc4cc(F)ccc34)C[C@@H]2C)Cc2ccccc21 [compound 827255] | Ki [1]: 53.7 nM |
|  |  | 28 | O=C(NC/C=C\CN1CCN(c2csc3cc(C(F)(F)F)ccc23)CC1)c1cc2ccccc2s1 [compound 827709] |  |

| Ki (Table 2, read-out: D3K1) [nM] | Ki [2] [nM] | Ki (read-out: D3K1) [nM] | SMILES | other results |
| --- | --- | --- | --- | --- |
|  |  | 31 | O=C(NC/C=C/CN1CCN(c2csc3cc(C(F)(F)F)ccc23)CC1)c1ccsc1 [compound 827710] |  |
|  |  | 230 | O=C(NC/C=C/CN1CCN(c2csc3cc(C(F)(F)F)ccc23)CC1)C1CCC1 [compound 827711] |  |
|  |  | 66 | O=C(NC/C=C/CN1CCN(c2csc3cc(C(F)(F)F)ccc23)CC1)C1CCCC1 [compound 827712] |  |
|  |  | 65 | O=C(NC/C=C/CN1CCN(c2csc3cc(C(F)(F)F)ccc23)CC1)c1ccccn1 [compound 827713] |  |
|  |  | 43 | O=C(NC/C=C/CN1CCN(c2csc3cc(C(F)(F)F)ccc23)CC1)c1cccnc1 [compound 827714] |  |
|  |  | 24 | O=C(NC/C=C/CN1CCN(c2csc3cc(C(F)(F)F)ccc23)CC1)c1ccccc1 [compound 827715] |  |
|  |  | 98 | O=C(NC/C=C/CN1CCN(c2csc3cc(C(F)(F)F)ccc23)CC1)c1cc(F)cc(F)c1 [compound 827716] |  |
|  |  | 9.5 | O=C(NC/C=C/CN1CCN(c2csc3cc(C(F)(F)F)ccc23)CC1)C1CCCCC1 [compound 827717] |  |
|  |  | 150 | O=C(NC/C=C/CN1CCN(c2csc3cc(C(F)(F)F)ccc23)CC1)c1cccc(Cl)c1 [compound 827718] |  |
|  |  | 51 | O=C(NC/C=C/CN1CCN(c2csc3cc(C(F)(F)F)ccc23)CC1)c1ccc(F)cc1 [compound 827719] |  |
|  |  | 86 | O=C(NC/C=C/CN1CCN(c2csc3cc(C(F)(F)F)ccc23)CC1)c1cccc(F)c1 [compound 827720] |  |
|  |  | 91 | N#Cc1cccc(C(=O)NC/C=C/CN2CCN(c3csc4cc(C(F)(F)F)ccc34)CC2)c1 [compound 827721] |  |
|  |  | 59 | COc1cccc(C(=O)NC/C=C/CN2CCN(c3csc4cc(C(F)(F)F)ccc34)CC2)c1 [compound 827722] |  |
|  |  | 120 | O=C(NC/C=C/CN1CCN(c2csc3cc(C(F)(F)F)ccc23)CC1)c1cccc(C(F)(F)F)c1 [compound 827724] |  |
|  |  | 120 | O=C(COc1ccccc1)NC/C=C/CN1CCN(c2csc3cc(C(F)(F)F)ccc23)CC1 [compound 827725] |  |
|  |  | 92 | O=C(NC/C=C/CN1CCN(c2csc3cc(C(F)(F)F)ccc23)CC1)c1ccc(OC(F)(F)F)cc1 [compound 827726] |  |
|  |  | 16 | O=C(NC/C=C/CN1CCN(c2csc3cc(C(F)(F)F)ccc23)CC1)c1cc2ccccc2s1 [compound 827728] |  |
|  |  | 2.7 | O=C(NCCCCCCN1CCN(c2csc3cc(C(F)(F)F)ccc23)CC1)c1cccc(F)c1 [compound 827730] | Ki (the 14th table, read-out: D3 Ki): 2.7 nM |
| 37.3 |  |  | COc1ccc(C(=O)NC/C=C\CN2CCN(c3csc4cc(C(F)(F)F)ccc34)CC2)cc1 [compound 827734] |  |
| 24.4 |  |  | COc1ccc(/C=C/C(=O)NC/C=C\CN2CCN(c3csc4cc(C(F)(F)F)ccc34)CC2)cc1 [compound 827735] |  |
| 173 |  |  | O=C(NC/C=C\CN1CCN(c2csc3cc(C(F)(F)F)ccc23)CC1)C1(c2ccccc2)CC1 [compound 827736] |  |
| 108 |  |  | CC(=O)C1CC(CC(=O)NC/C=C\CN2CCN(c3csc4cc(C(F)(F)F)ccc34)CC2)C1(C)C (stereo not shown) [compound 827737] |  |
| 22.6 |  |  | COc1ccc(C(=O)NC/C=C/CN2CCN(c3csc4cc(C(F)(F)F)ccc34)CC2)cc1 [compound 827738] |  |
| 22.4 |  |  | COc1ccc(/C=C/C(=O)NC/C=C/CN2CCN(c3csc4cc(C(F)(F)F)ccc34)CC2)cc1 [compound 827739] |  |
| 397 |  |  | O=C(NC/C=C/CN1CCN(c2csc3cc(C(F)(F)F)ccc23)CC1)C1(c2ccccc2)CC1 [compound 827740] |  |
